In ChEMBL document CHEMBL5726651, “Alkyne compounds for treatment of complement mediated disorders” (2017) one finds IC50 data, which are given here for one compound.

Each structure is given as a SMILES string.

For this assay, the target named is Complement factor D (Homo sapiens, UniProt P00746). As to the kind of experiment: Inhibition Assay: Human factor D (purified from human serum, Complement Technology, Inc.) at 80 nM final concentration is incubated with test compound at various concentrations for 5 minutes at room temperature in 50 mM Tris, 1M NaCl, pH 7.5. A synthetic substrate Z-L-Lys-SBzl and DTNB (Ellman's reagent) are added to final concentrations of 100 μM each. The increase in color is recorded at OD405 nm in a microplate in kinetic mode over 30 minutes with 30 second time points in a […]. IC50 values are calculated by non-linear regression from the percentage of inhibition of complement factor D activity as a function of test compound concentration.
Chain of Complement factor D (P00746 whole entry): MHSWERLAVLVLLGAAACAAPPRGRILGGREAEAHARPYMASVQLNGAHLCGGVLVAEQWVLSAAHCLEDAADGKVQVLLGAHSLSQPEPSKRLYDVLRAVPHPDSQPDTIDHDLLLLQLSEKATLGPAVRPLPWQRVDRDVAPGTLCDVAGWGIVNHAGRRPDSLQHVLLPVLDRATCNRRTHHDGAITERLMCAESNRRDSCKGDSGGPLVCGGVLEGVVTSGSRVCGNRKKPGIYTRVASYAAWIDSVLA

For `NC(=O)c1nn(CC(=O)N2C[C@H](F)C[C@H]2C(=O)Nc2cncc(Br)n2)c2ccc(C#Cc3ncc(F)cn3)cc12`, the IC50 (in general, the point on the concentration scale where inhibition reaches its midpoint) was below 1000 nM.
